Marks after values point to notes of the source that are not given here. Residues, ends and D or L forms follow the SMILES beside them.
Legend:
[1] = tested on: Drosophila melanogaster of EA strain; assay: Life span and ageing rate, EA strain; type: in vivo
Experimental: (§1) Drosophila melanogaster of EA strain served as a model for studying the influence of L-Ala-L-Glu-L-Asp-Gly tetrapeptide (SEQ ID NO: 1) on catalase activity, tissue chemoluminescence, and life span.
One-day old flies were placed in test tubes, 10 individuals of the same sex in each. Every 5 to 7 days they were transferred to a fresh medium, taking into account the number of deceased individuals. The average and maximal life spans were defined. The ageing rate was calculated by the parameters of Gomperz equation.
(§2) L-Ala-L-Glu-L-Asp-Gly tetrapeptide (SEQ ID NO: 1) was applied in the larvae of the 3rd age in dose 0.00001% of the culture medium weight, which constituted approximately 0.015 mg/100 ml. Catalase activity and the intensity of chemoluminescence were estimated in the homogenates of adult 7-day old flies by generally accepted methods. The experiment was conducted with a subsequent 5 repetition.
(§3) Regression and dispersal analyses served as the basic technique of statistic processing.

catalase = assay: Catalase activity in homogenates of 7-day old flies of EA strain; type: in vivo, Drosophila melanogaster of EA strain
Experimental: as §1, §2, §3

[2] = tested on: Drosophila melanogaster of EA strain; assay: Chemoluminescence intensity in homogenates of 7-day old flies of EA strain; type: in vivo
Experimental: as §1, §2, §3

[3] = tested on: Drosophila melanogaster of HEM strain; assay: Reproductive function: share of live and fertile cultures, HEM strain; type: in vivo; design: key to Share of cultures, Live: % of initial test tubes containing live females; key to Share of cultures, Fertile: % of live cultures in which posterity was given; conditions: for Share of cultures, Fertile / Share of cultures, Live: 0.00001% of medium weight
Experimental: Influence of L-Ala-L-Glu-L-Asp-Gly tetrapeptide (SEQ ID NO: 1) upon Drosophila melanogaster was tested at the stage of larvae of the 2nd-3rd age, by means of adding the preparation to culture medium in dose 0.00001% of the medium weight, which approximately made 0.015 mg/100 ml. The flies, hatched on the 1st day, were placed into test tubes, 5 couples in each, and transferred to fresh medium every 3 to 6 days.
There have been considered the following factors:
The share of the test tubes (of their initial amount), which contained live females (in Table 3—the share of live cultures).
The share of the test tubes (of the number of live cultures), in which posterity was given (in Table 3—the share of fertile cultures).
In each experimental variant 75 parental couples were analysed. The distinctions between fertility indices were defined by means of Fischer exact criterion for 2×2-adjustment tables (24).

[4] = tested on: blood anti-oxidation defence indices; assay: Blood anti-oxidation defence indices in patients with age-related pathology; type: in vivo; conditions: 10 μg intramuscularly daily for 10 days
Experimental: The studied pharmacological substance was administered to 14 patients (34 to 69 years old) with age-related pathology (hypertension disease, ischemic heart disease, chronic gastritis, non-insulin-dependent diabetes mellitus) and reduction of the anti-oxidation defence indices in blood.
The substance containing L-Ala-L-Glu-L-Asp-Gly tetrapeptide (SEQ ID NO: 1) was administered intramuscularly in the form of an injection solution in a single daily dose of 10 μg per injection for 10 days.

white outbred male mice = assay: Acute toxicity according to Kerber; type: in vivo
Experimental: The purpose of the study was to define tolerable toxic doses of the preparation, to estimate the stage and character of pathologic alterations in various organs and systems of the organism, and to identify the correlation between the toxic dose-related effect and the duration of the drug application.
The investigation was carried out on 66 white outbred male mice weighing 20 to 23 g, which were kept under standard regimen and fed upon standard rations in vivarium conditions. The animals were randomly divided into 6 equal groups of 11 mice in each. The animals were exposed to a single administration of the drug intramuscularly, 0.25 ml in doses 1 mg/kg, 2 mg/kg, 3 mg/kg, 4 mg/kg and 5 mg/kg (several thousand times exceeding the therapeutic dose recommended for clinical trial). Control animals were administered the same amount of sodium chloride.

[5] = single intramuscular administration, 1-5 mg/kg

## C[C@H](N)C(=O)N[C@@H](CCC(=O)O)C(=O)N[C@@H](CC(=O)O)C(=O)NCC(=O)O [L-Ala-L-Glu-L-Asp-Gly tetrapeptide, L-alanyl-L-glutamyl-L-aspartyl-glycine] (H-AEDG-OH)
[1]; females, Experiment 1
  ALS: 16.4 ± 1.68 days
  G 10^2: 3.6 ± 0.61* days^−1
  LSmax: 39 days
  LnR0: -3.1 ± 0.21 day⁻¹
[1]; females, Experiment 2
  ALS: 16.7 ± 0.70 days
  G 10^2: 4.2 ± 1.68 days^−1
  LSmax: 41 days
  LnR0 (Gompertz parameter): -3.6 ± 0.41 day⁻¹
[1]; males, Experiment 1
  ALS: 10.8 ± 1.09 days
  G 10^2: 3.3 ± 2.25 days^−1
  LSmax: 39 days
  LnR0 (Gompertz parameter): -2.3 ± 0.26 day⁻¹
[1]; males, Experiment 2
  ALS: 17.4 ± 0.88 days
  G 10^2: 4.7 ± 0.94* days^−1
  LSmax: 45 days
  LnR0 (Gompertz parameter): -3.0 ± 0.28 day⁻¹
catalase; females
  Specific activity of catalase: 82.78 ± 2.957 μmole H2O2/mg of protein per min.
catalase; males
  Specific activity of catalase: 100.39 ± 3.807 μmole H2O2/mg of protein per min.
[2]; females
  Chemoluminescence intensity: 4.61 ± 0.395 conv. unit/mg of protein per p
[2]; males
  Chemoluminescence intensity: 4.93 ± 0.109 conv. unit/mg of protein per p
[3]; HEM strain
  Coefficient A of lineal regression, fertile culture share on age (y = B + Ax): −2.5 ± 0.37
  Coefficient A of lineal regression, live culture shares on age (y = B + Ax): −1.6 ± 0.17
  Coefficient B of lineal regression, fertile culture share on age (y = B + Ax): 115 ± 11.4
  Coefficient B of lineal regression, live culture shares on age (y = B + Ax): 137 ± 10.6
  Maximal life span attained: 100 days
  “a”-coefficient of fertile-share regression, control higher than experimental variant: 1.8 times
[3]; HEM strain, Table 6
  Average life span: 54 days
[3]; HEM strain, regression analysis
  Share of live cultures decreases faster than in controls: 1.5 times
[3]; HEM strain, versus control
  Extension of the reproduction period: 1.5 fold
[3]; HEM strain, 30 days for cultures not exposed
  Duration of the reproductive period: 47 days
[3]; day 0, HEM strain
  Share of cultures, Fertile: 100 + 0.8
[3]; day 6, HEM strain
  Share of cultures, Fertile: 100 + 0.8
[3]; day 10, HEM strain
  Share of cultures, Fertile: 93 ± 6.9
[3]; day 13, HEM strain
  Share of cultures, Fertile: 93 ± 6.9
[3]; day 19, HEM strain
  Share of cultures, Fertile: 86 ± 9.4
[3]; day 23, HEM strain
  Share of cultures, Fertile: 43 ± 13.2
[3]; day 27, HEM strain
  Share of cultures, Fertile: 31 ± 12.9
  Share of cultures, Live: 93 ± 6.9
[3]; day 32, HEM strain
  Share of cultures, Fertile: 36 ± 14.5
  Share of cultures, Live: 85 ± 10.0
[3]; day 38, HEM strain
  Share of cultures, Fertile: 9 ± 8.7
  Share of cultures, Live: 85 ± 10.0
[3]; day 44, HEM strain
  Share of cultures, Fertile: 9 ± 8.7
  Share of cultures, Live: 85 ± 10.0
[3]; day 50, HEM strain
  Share of cultures, Fertile: 9 ± 8.7
  Share of cultures, Live: 36 ± 12.8
[3]; day 54, HEM strain
  Share of cultures, Fertile: 0 + 0.9
  Share of cultures, Live: 36 ± 12.8
[3]; day 60, HEM strain
  Share of cultures, Fertile: 0 + 0.9
  Share of cultures, Live: 29 ± 12.1
[3]; day 66, HEM strain
  Share of cultures, Fertile: 0 + 0.9
  Share of cultures, Live: 29 ± 12.1
[3]; day 69, HEM strain
  Share of cultures, Fertile: 0 + 0.9
  Share of cultures, Live: 21 ± 10.9
[3]; day 73, HEM strain
  Share of cultures, Fertile: 0 + 0.9
  Share of cultures, Live: 7 ± 6.9
[3]; day 76, HEM strain
  Share of cultures, Fertile: 0 + 0.9
  Share of cultures, Live: 7 ± 6.9
[3]; day 84, HEM strain
  Share of cultures, Fertile: 0 + 0.9
  Share of cultures, Live: 7 ± 6.9
[3]; day 87, HEM strain
  Share of cultures, Fertile: 0 + 0.9
  Share of cultures, Live: 7 ± 6.9
[3]; day 100, HEM strain
  Share of cultures, Fertile: 0 + 0.9
  Share of cultures, Live: 0 + 0.8
[4]; before treatment 0.26
  Activity of superoxide dismutase, After treatment: 0.61* conv. unit/mg of protein
[4]; before treatment 4.6 ± 0.3
  Products of spontaneous lipid peroxide oxidation: Schiff bases, After treatment: 2.9 ± 0.2 μM/l
[4]; before treatment 7.3 ± 0.6
  Products of spontaneous lipid peroxide oxidation: conjugated hydroperoxides, After treatment: 2.5 ± 0.2 μM/l
White outbred male mice; doses several thousand times exceeding the therapeutic one
  Acute toxic reactions: does not induce acute toxic reactions
White outbred male mice; [5]
  Alterations in general state, behaviour, locomotor activity, hair and skin integument, physiological discharges: No alterations
  Deaths within 72 hours and in 14 days: none of the animals in either of the groups died
